# Reference: patent US10358449B2, “Xanthine derivative” (priority 2015, dated 2019)
# Legend:
# [1] = target: hERG potassium channel (Homo sapiens (Human), UniProt Q12809); assay: hERG toxicity, manual patch clamp in CHO cells stably transfected with hERG; format: cell-based
# Source text: 1. Test method: testing the effect of the compounds on hERG […] in stable CHO cell lines transfected hERG […] by manual patch clamp method, and then calculating IC50 value of the compounds to hERG. Conventional Patch-Clamp was a technology that has been disclosed, was the most important technical means for studying ion channels and was universally recognized as the “gold standard” for ion channel researches and was the most accurate method for measuring ion channel. It was applicable to study the action mechanism of the effect of compound and the ion channel, and also could be used for toxicity evaluation and structure optimization of candidate drugs in the process of new drugs. In cardiomyocytes, human Ether-a-go-go Related Gene (hERG) coded potassium channel mediates a delayed rectification potassium current (IKr), IKr inhibition was the most important mechanism leading to QT interval prolongation by drugs. hERG could be inhibited by compounds of diversified structures, due to its specific molecular structure. […] The effects of compounds on hERG could be tested and relevant IC50 could be determined by conventional patch-clamp, using CHO cell lines that had been stably transfected hERG potassium channel.
# [2] = target: CYP1A2 (Homo sapiens (Human), UniProt P05177); assay: biochemical; format: in vitro ADME
# CYP1A2, sequence (P05177 whole entry): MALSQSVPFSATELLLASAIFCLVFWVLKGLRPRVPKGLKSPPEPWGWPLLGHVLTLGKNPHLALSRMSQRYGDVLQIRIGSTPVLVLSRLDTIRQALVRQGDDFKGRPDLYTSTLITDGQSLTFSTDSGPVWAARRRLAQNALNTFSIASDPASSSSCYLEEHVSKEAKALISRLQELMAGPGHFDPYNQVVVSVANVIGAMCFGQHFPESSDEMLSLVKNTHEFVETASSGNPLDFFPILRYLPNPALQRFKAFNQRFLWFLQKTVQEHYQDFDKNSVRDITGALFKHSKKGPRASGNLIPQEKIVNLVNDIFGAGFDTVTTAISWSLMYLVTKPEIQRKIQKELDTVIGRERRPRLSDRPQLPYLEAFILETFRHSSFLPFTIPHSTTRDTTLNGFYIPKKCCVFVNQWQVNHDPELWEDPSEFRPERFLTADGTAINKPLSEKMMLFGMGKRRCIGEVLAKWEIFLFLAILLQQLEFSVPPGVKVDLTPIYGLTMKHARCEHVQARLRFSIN
# Experimental: (§1) 1. Test method: human liver microsomes were used to carry out inhibition activity test of the compounds to CYP enzyme. With the system for incubating human liver microsomes in vitro, the content variation of phenacetin, diclofenac, S-mephenytoin, dextromethorphan and midazolam, which were substrates of human liver microsomes CYP1A2, CYP2C9, CYP2C19, CYP2D6, CYP3A4, were measured simultaneously by cocktail probe drug method (which is a disclosed technology), the effects of TSL-0319 under different concentrations on activity of human liver microsomes CYP1A2, CYP2C9, CYP2C19, CYP2D6, CYP3A4 subtypes are evaluated and relevant IC50 was measured.
# [3] = target: CYP2C19 (Homo sapiens (Human), UniProt P33261); assay: biochemical; format: in vitro ADME
# CYP2C19, sequence (P33261 whole entry): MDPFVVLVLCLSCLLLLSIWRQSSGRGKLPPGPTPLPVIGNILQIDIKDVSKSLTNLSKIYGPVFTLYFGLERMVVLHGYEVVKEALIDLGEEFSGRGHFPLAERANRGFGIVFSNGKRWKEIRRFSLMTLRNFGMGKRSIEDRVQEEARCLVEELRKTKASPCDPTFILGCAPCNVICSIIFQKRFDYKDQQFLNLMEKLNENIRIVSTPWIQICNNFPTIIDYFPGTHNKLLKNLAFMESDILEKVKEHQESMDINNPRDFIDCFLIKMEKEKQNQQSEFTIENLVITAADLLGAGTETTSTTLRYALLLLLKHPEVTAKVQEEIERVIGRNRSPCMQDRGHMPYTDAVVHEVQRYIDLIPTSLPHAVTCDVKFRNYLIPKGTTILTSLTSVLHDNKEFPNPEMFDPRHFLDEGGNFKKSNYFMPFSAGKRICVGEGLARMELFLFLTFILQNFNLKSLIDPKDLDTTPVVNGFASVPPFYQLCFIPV
# Experimental: as §1
# [4] = target: CYP2C9 (Homo sapiens (Human), UniProt P11712); assay: biochemical; format: in vitro ADME
# CYP2C9, sequence (P11712 whole entry): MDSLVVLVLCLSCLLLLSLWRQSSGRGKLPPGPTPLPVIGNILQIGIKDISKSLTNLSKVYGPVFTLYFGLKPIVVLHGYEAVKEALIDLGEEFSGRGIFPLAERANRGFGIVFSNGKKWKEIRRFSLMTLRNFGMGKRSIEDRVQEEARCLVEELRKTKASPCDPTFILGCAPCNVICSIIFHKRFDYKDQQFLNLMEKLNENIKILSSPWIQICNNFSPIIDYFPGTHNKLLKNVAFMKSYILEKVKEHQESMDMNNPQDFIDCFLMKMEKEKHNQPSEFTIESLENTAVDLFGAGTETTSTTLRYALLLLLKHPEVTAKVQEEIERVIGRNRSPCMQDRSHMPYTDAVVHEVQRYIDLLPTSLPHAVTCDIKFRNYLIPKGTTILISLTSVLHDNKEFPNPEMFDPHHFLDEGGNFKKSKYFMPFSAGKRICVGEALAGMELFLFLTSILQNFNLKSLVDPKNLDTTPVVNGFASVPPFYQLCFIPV
# Experimental: as §1
# [5] = target: CYP2D6 (Homo sapiens (Human), UniProt P10635); assay: biochemical; format: in vitro ADME
# CYP2D6, sequence (P10635 whole entry): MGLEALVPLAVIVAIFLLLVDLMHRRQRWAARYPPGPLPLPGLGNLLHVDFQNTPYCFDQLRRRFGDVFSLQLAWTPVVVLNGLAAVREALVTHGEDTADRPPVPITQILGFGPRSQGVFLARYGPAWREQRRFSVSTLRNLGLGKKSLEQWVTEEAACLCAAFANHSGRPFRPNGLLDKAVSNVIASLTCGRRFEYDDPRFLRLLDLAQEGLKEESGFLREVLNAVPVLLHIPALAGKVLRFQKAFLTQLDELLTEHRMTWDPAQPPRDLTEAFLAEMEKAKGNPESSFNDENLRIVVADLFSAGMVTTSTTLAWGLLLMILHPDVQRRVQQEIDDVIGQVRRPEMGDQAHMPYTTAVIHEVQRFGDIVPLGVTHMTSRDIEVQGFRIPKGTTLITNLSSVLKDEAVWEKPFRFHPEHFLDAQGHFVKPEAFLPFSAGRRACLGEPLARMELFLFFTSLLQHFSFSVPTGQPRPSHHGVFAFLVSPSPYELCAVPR
# Experimental: as §1
# [6] = target: CYP3A4 (Homo sapiens (Human), UniProt P08684); assay: biochemical; format: in vitro ADME
# CYP3A4, sequence (P08684 whole entry): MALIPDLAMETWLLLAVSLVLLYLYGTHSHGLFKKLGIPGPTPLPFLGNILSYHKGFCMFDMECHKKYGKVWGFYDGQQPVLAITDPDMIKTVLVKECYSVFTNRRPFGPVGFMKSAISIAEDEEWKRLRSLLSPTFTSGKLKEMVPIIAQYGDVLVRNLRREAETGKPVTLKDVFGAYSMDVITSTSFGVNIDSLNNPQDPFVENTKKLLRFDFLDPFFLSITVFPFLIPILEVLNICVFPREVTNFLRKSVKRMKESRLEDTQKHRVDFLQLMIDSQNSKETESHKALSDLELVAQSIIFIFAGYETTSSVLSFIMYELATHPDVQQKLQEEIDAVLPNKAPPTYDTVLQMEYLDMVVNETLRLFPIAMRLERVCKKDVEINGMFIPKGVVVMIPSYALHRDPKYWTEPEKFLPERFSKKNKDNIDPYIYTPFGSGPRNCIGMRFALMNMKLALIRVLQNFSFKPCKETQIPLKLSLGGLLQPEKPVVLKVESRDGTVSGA
# Experimental: as §1
# hERG potassium channel, sequence (Q12809 whole entry): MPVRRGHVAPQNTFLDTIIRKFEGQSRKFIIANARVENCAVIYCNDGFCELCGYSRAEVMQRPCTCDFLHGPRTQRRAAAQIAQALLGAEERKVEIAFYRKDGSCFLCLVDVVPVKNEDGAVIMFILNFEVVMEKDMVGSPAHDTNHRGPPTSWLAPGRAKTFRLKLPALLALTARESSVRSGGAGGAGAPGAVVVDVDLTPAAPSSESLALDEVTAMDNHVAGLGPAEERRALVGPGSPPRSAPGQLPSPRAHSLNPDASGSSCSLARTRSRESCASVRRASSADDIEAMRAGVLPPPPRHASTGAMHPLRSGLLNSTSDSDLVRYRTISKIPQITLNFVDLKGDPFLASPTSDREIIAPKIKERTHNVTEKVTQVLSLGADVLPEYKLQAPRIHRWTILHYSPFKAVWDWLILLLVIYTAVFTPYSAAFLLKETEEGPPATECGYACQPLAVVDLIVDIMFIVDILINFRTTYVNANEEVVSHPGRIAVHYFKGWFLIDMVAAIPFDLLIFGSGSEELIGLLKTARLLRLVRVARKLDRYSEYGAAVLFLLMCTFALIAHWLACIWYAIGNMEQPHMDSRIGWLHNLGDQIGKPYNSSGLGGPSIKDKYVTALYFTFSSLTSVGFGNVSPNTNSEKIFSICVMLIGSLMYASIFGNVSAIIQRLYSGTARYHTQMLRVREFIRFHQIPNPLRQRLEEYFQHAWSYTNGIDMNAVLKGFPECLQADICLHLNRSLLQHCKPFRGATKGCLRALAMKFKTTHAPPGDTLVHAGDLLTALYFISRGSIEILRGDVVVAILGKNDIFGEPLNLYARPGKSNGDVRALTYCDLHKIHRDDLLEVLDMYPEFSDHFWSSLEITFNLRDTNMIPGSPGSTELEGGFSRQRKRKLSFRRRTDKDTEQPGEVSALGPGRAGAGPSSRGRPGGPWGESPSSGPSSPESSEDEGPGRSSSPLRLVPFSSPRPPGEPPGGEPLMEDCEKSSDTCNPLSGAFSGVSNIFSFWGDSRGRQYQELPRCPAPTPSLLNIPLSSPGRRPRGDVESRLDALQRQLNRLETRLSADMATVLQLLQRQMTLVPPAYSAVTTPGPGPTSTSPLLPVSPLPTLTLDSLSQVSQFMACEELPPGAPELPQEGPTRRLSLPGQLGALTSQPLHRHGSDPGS
compound,measurement,setting,value
"CC#CCn1c(N2CCC[C@@H](N)C2)nc2c1c(=O)n(Cc1nccnc1C#N)c(=O)n2C [Compound I-3, 1-[(3-cyano-pyrazine-2-yl)methyl]-3-methyl-7-(2-butyne-1-yl)-8-[(R)-3-amino-piperidine-1-yl]-xanthine]",inhibition rate to hERG,[1]; 1 μM concentration,0%
same,IC50,"[1]; manual patch clamp, CHO cells",79.8 µM
same,IC50,[2],> 50 µM
same,inhibition at 0.05 µM,"[2]; human, microsomes",0%
same,inhibition at 0.15 µM,"[2]; human, microsomes",0%
same,inhibition at 0.5 µM,"[2]; human, microsomes",2.2%
same,inhibition at 1.5 µM,"[2]; human, microsomes",4.2%
same,inhibition at 5 µM,"[2]; human, microsomes",6.6%
same,inhibition at 15 µM,"[2]; human, microsomes",20.8%
same,inhibition at 50 µM,"[2]; human, microsomes",41.8%
same,IC50,[3],> 50 µM
same,inhibition at 0.05 µM,"[3]; human, microsomes",0%
same,inhibition at 1.5 µM,"[3]; human, microsomes",3.3%
same,inhibition at 5 µM,"[3]; human, microsomes",8.2%
same,inhibition at 15 µM,"[3]; human, microsomes",14%
same,inhibition at 50 µM,"[3]; human, microsomes",2.9%
same,IC50,[4],> 50 µM
same,inhibition at 0.05 µM,"[4]; human, microsomes",0%
same,inhibition at 0.15 µM,"[4]; human, microsomes",0%
same,inhibition at 0.5 µM,"[4]; human, microsomes",3.2%
same,inhibition at 1.5 µM,"[4]; human, microsomes",5.7%
same,inhibition at 5 µM,"[4]; human, microsomes",10.5%
same,inhibition at 15 µM,"[4]; human, microsomes",12.1%
same,inhibition at 50 µM,"[4]; human, microsomes",13.9%
same,IC50,[5],> 50 µM
same,inhibition at 0.05 µM,"[5]; human, microsomes",0%
same,inhibition at 0.15 µM,"[5]; human, microsomes",0%
same,inhibition at 0.5 µM,"[5]; human, microsomes",0%
same,inhibition at 1.5 µM,"[5]; human, microsomes",0%
same,inhibition at 5 µM,"[5]; human, microsomes",0%
same,inhibition at 15 µM,"[5]; human, microsomes",3%
same,inhibition at 50 µM,"[5]; human, microsomes",14.6%
same,IC50,[6],> 50 µM
same,inhibition at 0.05 µM,"[6]; human, microsomes",0%
same,inhibition at 0.15 µM,"[6]; human, microsomes",0%
same,inhibition at 0.5 µM,"[6]; human, microsomes",4%
same,inhibition at 1.5 µM,"[6]; human, microsomes",4.4%
same,inhibition at 5 µM,"[6]; human, microsomes",8.7%
same,inhibition at 15 µM,"[6]; human, microsomes",17.9%
same,inhibition at 50 µM,"[6]; human, microsomes",44.6%
